Experimental data reported in ChEMBL document CHEMBL4483862, “Open-source discovery of chemical leads for next-generation chemoprotective antimalarials” (2018).

System: Plasmodium berghei
Assay: Luciferase/luciferin-expressing antifolate-resistant parasites were used to infect a culture of HepG2 cells that were pre-incubated with compounds. Infected hepatocytes emit light due to the luciferase reaction. Assay results are presented as the percent inhibition of light emission compared to control. […]
Format: functional
Conditions: sporozoite; for IC90: read-out: LUCIFERASE INFECTION ASSAY - IC90

| Compound | IC90 [µM] | other results |
| --- | --- | --- |
| O=C(Nc1ccc(N2CCN(c3ccc(C(F)(F)F)cn3)CC2)nc1)c1cccs1 | > 7.61 | IC50 (PBLUC_HILL_SLOPE 0.747, PBLUC_R_SQUARED 0.763, read-out: LUCIFERASE INFECTION ASSAY - IC50): 0.638 µM |
| Cc1ccc(OCC(=O)N(Cc2ccccc2)c2c(N)n(Cc3ccccc3)c(=O)[nH]c2=O)c(C)c1 | > 10 | IC50 (PBLUC_HILL_SLOPE 0.649, PBLUC_R_SQUARED 0.141, read-out: LUCIFERASE INFECTION ASSAY - IC50): > 10 µM |
| Cc1ncc(CC(=O)n2cc(C(=O)c3cc(F)ccc3O)cn2)s1 | > 10 | IC50 (PBLUC_HILL_SLOPE 0.716, PBLUC_R_SQUARED 0.277, read-out: LUCIFERASE INFECTION ASSAY - IC50): > 10 µM |
| COCC(C)n1c(C)cc(C(=O)CSc2ccc(NC(C)=O)cc2)c1C (configuration not stated) | > 10 | IC50 (PBLUC_HILL_SLOPE 0.698, PBLUC_R_SQUARED 0.74, read-out: LUCIFERASE INFECTION ASSAY - IC50): 0.948 µM |
| CCOC(=O)c1ccccc1NC(=O)C1CCN(c2ncnc3sc(C)c(C)c23)CC1 | > 10 | IC50 (PBLUC_HILL_SLOPE 0.744, PBLUC_R_SQUARED 0.552, read-out: LUCIFERASE INFECTION ASSAY - IC50): 5.7 µM |
| COc1ccccc1CNc1nc(NCc2cccc(OC)c2OC)c2sccc2n1 | > 7.56 | IC50 (PBLUC_HILL_SLOPE 0.707, PBLUC_R_SQUARED 0.411, read-out: LUCIFERASE INFECTION ASSAY - IC50): 2.69 µM |
| COc1cc(NC(=S)Nc2cccc(OC(F)(F)F)c2)cc(C(F)(F)F)c1 | > 8.04 | IC50 (PBLUC_HILL_SLOPE 0.721, PBLUC_R_SQUARED 0.563, read-out: LUCIFERASE INFECTION ASSAY - IC50): 2.34 µM |
| C=CCn1c(C)cc(C(=O)Cn2nnc(-c3ccccc3C)n2)c1C | > 10 | IC50 (PBLUC_HILL_SLOPE 0.683, PBLUC_R_SQUARED 0.219, read-out: LUCIFERASE INFECTION ASSAY - IC50): > 10 µM |
| O=C(Nc1ccncc1)c1cc(Br)c(Br)s1 | > 10 | IC50 (PBLUC_HILL_SLOPE 0.742, PBLUC_R_SQUARED 0.564, read-out: LUCIFERASE INFECTION ASSAY - IC50): 4.29 µM |
| CC1CC(NC(=S)NCc2csc3ccccc23)CC(C)(C)C1 (configuration not stated) | > 9.52 | IC50 (PBLUC_HILL_SLOPE 0.667, PBLUC_R_SQUARED 0.384, read-out: LUCIFERASE INFECTION ASSAY - IC50): > 9.52 µM |
| C=CCN(C(=O)c1[nH]c(C)c(C(C)=O)c1C)c1nc2c(s1)CCCC2 | 6.45 | IC50 (PBLUC_HILL_SLOPE 0.713, PBLUC_R_SQUARED 0.94, read-out: LUCIFERASE INFECTION ASSAY - IC50): 0.296 µM |
| Cc1cccc(OCC(=O)Nc2nc(C)c(Cc3ccc4c(c3)OCO4)s2)c1 | > 10 | IC50 (PBLUC_HILL_SLOPE 0.768, PBLUC_R_SQUARED 0.0907, read-out: LUCIFERASE INFECTION ASSAY - IC50): > 10 µM |
| CCCCn1c(N)c(-c2nc(CC(C)(C)C)c(C(=O)c3ccc(Br)s3)s2)c(=O)n(C)c1=O | > 10 | IC50 (PBLUC_HILL_SLOPE 0.7, PBLUC_R_SQUARED 0.683, read-out: LUCIFERASE INFECTION ASSAY - IC50): 2.73 µM |
| CCc1ccc(S(=O)(=O)Nc2cc(Cl)c(O)c3ccccc23)cc1 | > 10 | IC50 (PBLUC_HILL_SLOPE 0.706, PBLUC_R_SQUARED 0.416, read-out: LUCIFERASE INFECTION ASSAY - IC50): 1.42 µM |
| CN(C)c1ccc(Nc2nc(=O)cn[nH]2)cc1 | > 14.3 | IC50 (PBLUC_HILL_SLOPE 0.727, PBLUC_R_SQUARED 0.391, read-out: LUCIFERASE INFECTION ASSAY - IC50): > 14.3 µM |
| Cc1c2cnn(C)c(=O)c2c(C)n1Cc1cccs1 | > 12.1 | IC50 (PBLUC_HILL_SLOPE 0.733, PBLUC_R_SQUARED 0.45, read-out: LUCIFERASE INFECTION ASSAY - IC50): 4.19 µM |
| O=C(Nc1ccc2c(c1)OC1(CCCCC1)O2)c1ccc[nH]c1=S | 4.02 | IC50 (PBLUC_HILL_SLOPE 0.703, PBLUC_R_SQUARED 0.661, read-out: LUCIFERASE INFECTION ASSAY - IC50): 0.176 µM |
| Cc1ccc(-c2cnc3c(Nc4ccc(NS(=O)(=O)c5ccc(C)cc5)cc4)nccn23)cc1 | > 7.03 | IC50 (PBLUC_HILL_SLOPE 0.774, PBLUC_R_SQUARED 0.875, read-out: LUCIFERASE INFECTION ASSAY - IC50): 1.09 µM |
| CCOc1ccc2c(c1)C(=O)C(=O)N2Cc1ccc(OC)cc1 | > 10.6 | IC50 (PBLUC_HILL_SLOPE 0.721, PBLUC_R_SQUARED 0.0969, read-out: LUCIFERASE INFECTION ASSAY - IC50): > 10.6 µM |
| Cc1cc(N2CCN(C)CC2)n2ncc(-c3ccc(F)cc3)c2n1 | > 10.1 | IC50 (PBLUC_HILL_SLOPE 0.664, PBLUC_R_SQUARED 0.928, read-out: LUCIFERASE INFECTION ASSAY - IC50): 0.571 µM |
| c1ccc(OCc2nc3ccccc3n2-c2cc(-c3ccccc3)n[nH]2)cc1 | > 10 | IC50 (PBLUC_HILL_SLOPE 0.678, 16.2, PBLUC_R_SQUARED 0.350, 0.0461, read-out: LUCIFERASE INFECTION ASSAY - IC50): 9.43 µM |

| Compound | IC90 [µM] | other results |
| --- | --- | --- |
| Cc1ccc(S(=O)(=O)NNC(=O)COc2ccc(SC(F)(F)F)cc2)cc1 | > 7.85 | IC50 (PBLUC_HILL_SLOPE 0.658, PBLUC_R_SQUARED 0.0672, read-out: LUCIFERASE INFECTION ASSAY - IC50): > 7.85 µM |
| O=C(O)c1c2c(nc3ccccc13)/C(=C/c1ccc(OC(F)F)cc1)CC2 | > 10 | IC50 (PBLUC_HILL_SLOPE 0.722, PBLUC_R_SQUARED 0.387, read-out: LUCIFERASE INFECTION ASSAY - IC50): 5.43 µM |
| Cc1cc(C(=O)CSC2=NCCS2)c(C)n1-c1ccc(F)cc1 | > 10 | IC50 (PBLUC_HILL_SLOPE 0.709, PBLUC_R_SQUARED 0.459, read-out: LUCIFERASE INFECTION ASSAY - IC50): 2.87 µM |
| Cc1cc(C)c(C#N)c(SCC(=O)N(C)Cc2cnn(-c3ccccc3)c2)n1 | > 10 | IC50 (PBLUC_HILL_SLOPE 0.688, PBLUC_R_SQUARED 0.271, read-out: LUCIFERASE INFECTION ASSAY - IC50): 4.09 µM |
| CC12CCC(CC1=NNc1nc3ccccc3o1)C2(C)C (configuration not stated) | > 10 | IC50 (PBLUC_HILL_SLOPE 0.724, PBLUC_R_SQUARED 0.679, read-out: LUCIFERASE INFECTION ASSAY - IC50): 4.33 µM |
| Cc1c(C)n(CCCO)c2ncn3nc(-c4ccccc4)nc3c12 | > 10.3 | IC50 (PBLUC_HILL_SLOPE 0.753, PBLUC_R_SQUARED 0.737, read-out: LUCIFERASE INFECTION ASSAY - IC50): 1.26 µM |
| Cn1c(C=C2NC(c3cnccn3)=NO2)n[nH]c1=S | > 12 | IC50 (PBLUC_HILL_SLOPE 0.666, PBLUC_R_SQUARED 0.147, read-out: LUCIFERASE INFECTION ASSAY - IC50): > 12 µM |
| COc1ccc(NC(=O)c2ccc(CN(C)C3CCCCCC3)cc2)cc1 | > 2 | IC50 (PBLUC_HILL_SLOPE 0.775, PBLUC_R_SQUARED 0.25, read-out: LUCIFERASE INFECTION ASSAY - IC50): 1.73 µM |
| CC(C)(C)n1ncc(C(=O)NCCOc2ccccc2)c1C(F)(F)F | > 10 | IC50 (PBLUC_HILL_SLOPE 0.7, PBLUC_R_SQUARED 0.775, read-out: LUCIFERASE INFECTION ASSAY - IC50): 0.591 µM |
| O=C(Nc1ccncc1)c1cc([N+](=O)[O-])ccc1Sc1ccccc1 | > 9.39 | IC50 (PBLUC_HILL_SLOPE 0.732, PBLUC_R_SQUARED 0.239, read-out: LUCIFERASE INFECTION ASSAY - IC50): 3.82 µM |
| Fc1ccc(-c2cnn3c(NCc4cccs4)ccnc23)cc1Cl | 7.94 | IC50 (PBLUC_HILL_SLOPE 0.723, PBLUC_R_SQUARED 0.681, read-out: LUCIFERASE INFECTION ASSAY - IC50): 0.38 µM |
| Clc1cccc(Nc2ncc(-c3ccc4c(c3)OCCCO4)s2)c1 | 3.49 | IC50 (PBLUC_HILL_SLOPE 0.775, PBLUC_R_SQUARED 0.83, read-out: LUCIFERASE INFECTION ASSAY - IC50): 0.205 µM |
| O=C1OCCC1Sc1nc(-c2ccccc2)c(-c2ccccc2)o1 (configuration not stated) | > 9.78 | IC50 (PBLUC_HILL_SLOPE 0.774, PBLUC_R_SQUARED 0.522, read-out: LUCIFERASE INFECTION ASSAY - IC50): 4.13 µM |
| CSc1nccc(-c2ccc3c(c2)CCC(C)(C)O3)n1 | 11 | IC50 (PBLUC_HILL_SLOPE 0.747, PBLUC_R_SQUARED 0.886, read-out: LUCIFERASE INFECTION ASSAY - IC50): 0.583 µM |
| CC(C)(C)c1ccc(C(=O)Nc2cc(Cl)ccc2OC(=O)c2ccc(C(C)(C)C)cc2)cc1 | > 7.11 | IC50 (PBLUC_HILL_SLOPE 0.69, PBLUC_R_SQUARED 0.715, read-out: LUCIFERASE INFECTION ASSAY - IC50): 0.555 µM |
| COc1ccc(CNCc2ccc(N3CCCCCC3)cc2)cc1 | > 10 | IC50 (PBLUC_HILL_SLOPE 0.677, PBLUC_R_SQUARED 0.204, read-out: LUCIFERASE INFECTION ASSAY - IC50): > 10 µM |
| Cc1c(C)n(CCCO)c2ncn3nc(-c4cccs4)nc3c12 | > 10.1 | IC50 (PBLUC_HILL_SLOPE 0.662, PBLUC_R_SQUARED 0.606, read-out: LUCIFERASE INFECTION ASSAY - IC50): 4.42 µM |
| CCN(CC)CCNC(=O)c1ccc(-c2ccccc2)cc1 | > 11.1 | IC50 (PBLUC_HILL_SLOPE 0.701, PBLUC_R_SQUARED 0.65, read-out: LUCIFERASE INFECTION ASSAY - IC50): 5.34 µM |
| CC(C)(C)c1ccc(C(=O)Nc2nnc(Sc3ccc([N+](=O)[O-])cc3C#N)s2)cc1 | 4.98 | IC50 (PBLUC_HILL_SLOPE 0.682, PBLUC_R_SQUARED 0.567, read-out: LUCIFERASE INFECTION ASSAY - IC50): 0.198 µM |
| O=C(Cn1nnc2ccccc2c1=O)c1ccc(C2CCCCC2)cc1 | > 10 | IC50 (PBLUC_HILL_SLOPE 0.775, PBLUC_R_SQUARED 0.761, read-out: LUCIFERASE INFECTION ASSAY - IC50): 1.11 µM |
